Legend:
Format in all cases: cell-based
[1] = test system: human multiple myeloma NCI-H929 cells; assay: Growth inhibition test on human multiple myeloma NCI-H929 cells (WST-1, % viability); settings: test compound 10 μmol/L, cells without test compound = 100%
Procedure: (§1) Ten thousand cells of human multiple myeloma NCI-H929 were inoculated into each well of a 96-well microplate (manufactured by Nunc Corp.), and using RPMI medium (culture medium) containing 10% FCS, preculturing was performed in a 5% carbon dioxide incubator at 37° C. for 24 hours. A DMSO solution of each test compound prepared in a concentration of 10 mmol/L was diluted with the culture medium to a final concentration of 10 μmol/L, and the diluted solution was added to each well. The individual wells were further cultured in the 5% carbon dioxide incubator at 37° C. for 72 hours. After completion of the culturing, 10 μL of WST-1 labeled mixture (manufactured by Roche Diagnostic Corp.) was added to each well, and culturing was performed in the 5% carbon dioxide incubator at 37° C. for 2 hours. Using a microplate spectrophotometer (SpectraMax 340PC384; manufactured by Nihon Molecular Devices), the absorbance of each well was measured at 450 nm and 655 nm. The value obtained by subtracting the absorbance at 450 nm from the absorbance at 655 nm (absorbance difference) was calculated for each well. The value for cells not incorporated with a test compound was designated as 100%, and the value at a well not containing cells was designated as 0%. By comparing these values with the absorbance difference obtained at the well in which each test compound was added, the cell viability (% viability) after treatment with the test compound was calculated.

[2] = test system: human chronic myelocytic leukemia K562 cells; assay: Growth inhibition test on human chronic myelocytic leukemia K562 cells (WST-1, % viability); settings: test compound 10 μmol/L, 72 hours, cells without test compound = 100%
Procedure: as §1, with “One” for “Ten”, “chronic myelocytic leukemia K562” for “multiple myeloma NCI-H929”, “RPMI1640” for “RPMI”, “fetal calf serum (FCS),” for “FCS,”, “dimethyl sulfoxide (DMSO)” for “DMSO”, “WST-1 {4-[3-(4-Iodophenyl)-2-(4-nitrophenyl)-2H-5-tetrazolio]-1,3-benzene disulfonate}” for “WST-1”

[3] = test system: human prostate cancer 22Rv1 cells; assay: Growth inhibition test on human prostate cancer 22Rv1 cells (WST-1, % viability); settings: test compound 10 μmol/L, 72 hours, cells without test compound = 100%
Procedure: as §1, with “Five” for “Ten”, “prostate cancer 22Rv1” for “multiple myeloma NCI-H929”, “RPMI1640” for “RPMI”, “(Model 550;” for “(SpectraMax 340PC384;”, “Bio-Rad),” for “Nihon Molecular Devices),”

[4] = test system: human renal cancer OS-RC-2 cells; assay: Growth inhibition test on human renal cancer OS-RC-2 cells (WST-1, % viability); settings: test compound 10 μmol/L, 72 hours, cells without test compound = 100%
Procedure: as §1, with “One” for “Ten”, “renal cancer OS-RC-2” for “multiple myeloma NCI-H929”, “RPMI1640” for “RPMI”, “(Model 550;” for “(SpectraMax 340PC384;”, “Bio-Rad),” for “Nihon Molecular Devices),”

## CCc1c(O)cc(O)c(C(=O)c2ccc(OC)cc2)c1CC(=O)N(CCO)CCO [Compound 13]
[1]
  Viability of tumor cells (% viability), Human multiple myeloma NCI-H929 cells: 0%
[2]
  Viability of tumor cells (% viability), Human chronic myelocytic leukemia K562 cells: 26%
[3]
  Viability of tumor cells (% viability), Human prostate cancer 22Rv1 cells: 6%
[4]
  Viability of tumor cells (% viability), Human renal cancer OS-RC-2 cells: 66%

## CCc1c(O)cc(O)c(C(=O)c2ccc(OC)cc2)c1CC(=O)N(C)Cc1cccnc1 [Compound 16]
[1]
  Viability of tumor cells (% viability), Human multiple myeloma NCI-H929 cells: 0%
[2]
  Viability of tumor cells (% viability), Human chronic myelocytic leukemia K562 cells: 4%
[3]
  Viability of tumor cells (% viability), Human prostate cancer 22Rv1 cells: 5%
[4]
  Viability of tumor cells (% viability), Human renal cancer OS-RC-2 cells: 17%

## CCc1c(O)cc(O)c(C(=O)c2ccc(OC)cc2)c1CC(=O)N1CCN(c2ccccc2C#N)CC1 [Compound 17]
[1]
  Viability of tumor cells (% viability), Human multiple myeloma NCI-H929 cells: 0%
[2]
  Viability of tumor cells (% viability), Human chronic myelocytic leukemia K562 cells: 4%
[3]
  Viability of tumor cells (% viability), Human prostate cancer 22Rv1 cells: 5%
[4]
  Viability of tumor cells (% viability), Human renal cancer OS-RC-2 cells: 20%

## CCc1c(O)cc(O)c(C(=O)c2ccc(OC)cc2)c1CC(=O)N1CCN(c2ncccn2)CC1 [Compound 32]
[1]
  Viability of tumor cells (% viability), Human multiple myeloma NCI-H929 cells: 0%
[2]
  Viability of tumor cells (% viability), Human chronic myelocytic leukemia K562 cells: 4%
[3]
  Viability of tumor cells (% viability), Human prostate cancer 22Rv1 cells: 5%
[4]
  Viability of tumor cells (% viability), Human renal cancer OS-RC-2 cells: 17%

## CCc1c(O)cc(O)c(C(=O)c2ccc(OC)cc2)c1CC(=O)N(CCO)CCOC [Compound 33]
[1]
  Viability of tumor cells (% viability), Human multiple myeloma NCI-H929 cells: 0%
[2]
  Viability of tumor cells (% viability), Human chronic myelocytic leukemia K562 cells: 4%
[3]
  Viability of tumor cells (% viability), Human prostate cancer 22Rv1 cells: 5%
[4]
  Viability of tumor cells (% viability), Human renal cancer OS-RC-2 cells: 18%

## CCc1c(O)cc(O)c(C(=O)c2ccc(OC)cc2)c1CC(=O)N1CCc2cc(OC)c(OC)cc2C1 [Compound 38]
[1]
  Viability of tumor cells (% viability), Human multiple myeloma NCI-H929 cells: 0%
[2]
  Viability of tumor cells (% viability), Human chronic myelocytic leukemia K562 cells: 4%
[3]
  Viability of tumor cells (% viability), Human prostate cancer 22Rv1 cells: 4%
[4]
  Viability of tumor cells (% viability), Human renal cancer OS-RC-2 cells: 18%

## CCc1c(O)cc(O)c(C(=O)c2ccc(OC)c(OC)c2)c1CC(=O)N1CCN(c2ccccc2)CC1 [Compound 41]
[1]
  Viability of tumor cells (% viability), Human multiple myeloma NCI-H929 cells: 0%
[2]
  Viability of tumor cells (% viability), Human chronic myelocytic leukemia K562 cells: 4%
[3]
  Viability of tumor cells (% viability), Human prostate cancer 22Rv1 cells: 5%
[4]
  Viability of tumor cells (% viability), Human renal cancer OS-RC-2 cells: 18%

## CCc1c(O)cc(O)c(C(=O)c2ccc(OC)c(OC)c2)c1CC(=O)N(CCO)CCOC [Compound 56]
[1]
  Viability of tumor cells (% viability), Human multiple myeloma NCI-H929 cells: 0%
[2]
  Viability of tumor cells (% viability), Human chronic myelocytic leukemia K562 cells: 5%
[3]
  Viability of tumor cells (% viability), Human prostate cancer 22Rv1 cells: 5%
[4]
  Viability of tumor cells (% viability), Human renal cancer OS-RC-2 cells: 18%

## CCc1c(O)cc(O)c(C(=O)c2ccc(OC)cc2)c1CC(=O)N1CCC(CO)CC1 [Compound 61]
[1]
  Viability of tumor cells (% viability), Human multiple myeloma NCI-H929 cells: 0%
[2]
  Viability of tumor cells (% viability), Human chronic myelocytic leukemia K562 cells: 5%
[3]
  Viability of tumor cells (% viability), Human prostate cancer 22Rv1 cells: 5%
[4]
  Viability of tumor cells (% viability), Human renal cancer OS-RC-2 cells: 25%

## CCc1c(O)cc(O)c(C(=O)c2ccc(OC)cc2)c1CC(=O)N(CCO)Cc1ccco1 [Compound 69]
[1]
  Viability of tumor cells (% viability), Human multiple myeloma NCI-H929 cells: 0%
[2]
  Viability of tumor cells (% viability), Human chronic myelocytic leukemia K562 cells: 4%
[3]
  Viability of tumor cells (% viability), Human prostate cancer 22Rv1 cells: 5%
[4]
  Viability of tumor cells (% viability), Human renal cancer OS-RC-2 cells: 16%

## CCc1c(O)cc(O)c(C(=O)c2ccc(OC(F)(F)F)cc2)c1CC(=O)N(CCO)CCOC [Compound 88]
[1]
  Viability of tumor cells (% viability), Human multiple myeloma NCI-H929 cells: 0%
[2]
  Viability of tumor cells (% viability), Human chronic myelocytic leukemia K562 cells: 4%
[3]
  Viability of tumor cells (% viability), Human prostate cancer 22Rv1 cells: 6%
[4]
  Viability of tumor cells (% viability), Human renal cancer OS-RC-2 cells: 17%

## CCc1c(O)cc(O)c(C(=O)c2ccc(OC(F)F)cc2)c1CC(=O)N(CCO)CCOC [Compound 91]
[1]
  Viability of tumor cells (% viability), Human multiple myeloma NCI-H929 cells: 0%
[2]
  Viability of tumor cells (% viability), Human chronic myelocytic leukemia K562 cells: 4%
[3]
  Viability of tumor cells (% viability), Human prostate cancer 22Rv1 cells: 5%
[4]
  Viability of tumor cells (% viability), Human renal cancer OS-RC-2 cells: 17%

## CCc1c(O)cc(O)c(C(=O)c2ccc(SC)cc2)c1CC(=O)N(CCO)CCOC [Compound 95]
[1]
  Viability of tumor cells (% viability), Human multiple myeloma NCI-H929 cells: 0%
[2]
  Viability of tumor cells (% viability), Human chronic myelocytic leukemia K562 cells: 4%
[3]
  Viability of tumor cells (% viability), Human prostate cancer 22Rv1 cells: 5%
[4]
  Viability of tumor cells (% viability), Human renal cancer OS-RC-2 cells: 18%

## CCc1c(O)cc(O)c(C(=O)c2ccc(O)c(OC)c2)c1CC(=O)N(CCOC)CCOC [Compound 106]
[1]
  Viability of tumor cells (% viability), Human multiple myeloma NCI-H929 cells: 0%
[2]
  Viability of tumor cells (% viability), Human chronic myelocytic leukemia K562 cells: 4%
[3]
  Viability of tumor cells (% viability), Human prostate cancer 22Rv1 cells: 5%
[4]
  Viability of tumor cells (% viability), Human renal cancer OS-RC-2 cells: 16%

## CCc1c(O)cc(O)c(C(=O)c2ccc(S(C)(=O)=O)cc2)c1CC(=O)N(CCOC)CCOC [Compound 107]
[1]
  Viability of tumor cells (% viability), Human multiple myeloma NCI-H929 cells: 0%
[2]
  Viability of tumor cells (% viability), Human chronic myelocytic leukemia K562 cells: 5%
[3]
  Viability of tumor cells (% viability), Human prostate cancer 22Rv1 cells: 5%
[4]
  Viability of tumor cells (% viability), Human renal cancer OS-RC-2 cells: 18%

## CCOc1ccc(C(=O)c2c(O)cc(O)c(CC)c2CC(=O)N(CCO)CCOC)cc1 [Compound 122]
[1]
  Viability of tumor cells (% viability), Human multiple myeloma NCI-H929 cells: 0%
[2]
  Viability of tumor cells (% viability), Human chronic myelocytic leukemia K562 cells: 4%
[3]
  Viability of tumor cells (% viability), Human prostate cancer 22Rv1 cells: 5%
[4]
  Viability of tumor cells (% viability), Human renal cancer OS-RC-2 cells: 15%

## CCc1c(O)cc(O)c(C(=O)c2ccc(OC(C)C)cc2)c1CC(=O)N(CCO)CCOC [Compound 124]
[1]
  Viability of tumor cells (% viability), Human multiple myeloma NCI-H929 cells: 0%
[2]
  Viability of tumor cells (% viability), Human chronic myelocytic leukemia K562 cells: 4%
[3]
  Viability of tumor cells (% viability), Human prostate cancer 22Rv1 cells: 5%
[4]
  Viability of tumor cells (% viability), Human renal cancer OS-RC-2 cells: 15%

## CCc1c(O)cc(O)c(C(=O)c2ccc(OCCN3CCOCC3)c(OC)c2)c1CC(=O)N(CCOC)CCOC [Compound 125]
[1]
  Viability of tumor cells (% viability), Human multiple myeloma NCI-H929 cells: 0%
[2]
  Viability of tumor cells (% viability), Human chronic myelocytic leukemia K562 cells: 4%
[3]
  Viability of tumor cells (% viability), Human prostate cancer 22Rv1 cells: 5%
[4]
  Viability of tumor cells (% viability), Human renal cancer OS-RC-2 cells: 20%

## CCc1c(O)cc(O)c(C(=O)c2ccc(OC(C)C)cc2)c1CC(=O)N(CCOC)CCN1CCOCC1 [Compound 134]
[1]
  Viability of tumor cells (% viability), Human multiple myeloma NCI-H929 cells: 0%
[2]
  Viability of tumor cells (% viability), Human chronic myelocytic leukemia K562 cells: 4%
[3]
  Viability of tumor cells (% viability), Human prostate cancer 22Rv1 cells: 6%
[4]
  Viability of tumor cells (% viability), Human renal cancer OS-RC-2 cells: 21%
